Results filed as inconclusive are left out. Calls of active or inactive are those of the source. The rule behind the calls is not given here.
System: H4 cells, PrP 5'UTR luciferase reporter, luminescence
Experiment: activators of PrP 5'UTR-driven reporter translation, dose response, luminescence (AID 1999)

## C#CCOCCOCCOCCNc1nc(N2CCN(C(=O)CCCCCCCCCCNC(=O)[C@H](CCCCN)n3cc(CCCC(=O)O)nn3)CC2)nc(N2CCN(C(=O)CCCCCCCCCCNC(=O)[C@H](CCCN=C(N)N)n3cc(C[C@@H](C)CC)nn3)CC2)n1
  EC50: > 12 µM (inactive)
